These are literature values, as cited in publication PMC10772668 (Clinical and Translational Science, 2023).

The conditions of the series: cited from earlier work.

As to `CN1C(=O)[C@@H](NC(=O)c2nnc(Cc3ccccc3)[nH]2)COc2ccccc21` [GSK2982772], the Safety and tolerability result (clinical development) is “safe and well‐tolerated”. In addition, under “healthy participants”, the “Tolerability and ALT abnormalities” value was “well‐tolerated with no reports of ALT abnormalities”.
